Results taken from patent US9714249B2 (Novartis AG, priority 2013, dated 2017).

Key:
[1] = target: BRD2 (His-Brd2(60-472)) (Homo sapiens (Human), UniProt P25440); assay: TR-FRET in-vitro binding assay for BRD2; settings: acetyl-histone H4 peptide
Experimental: (§1) All assays were performed in 384 well microtiter plates. Each assay plate contained 8-point serial dilutions for 40 test compounds, plus 16 high- and 16 low controls. Liquid handling and incubation steps were done on an Innovadyne Nanodrop Express equipped with a robotic arm (Thermo CatX, Perkin Elmer/Caliper Twister II) and an incubator (Liconic STX40, Thermo Cytomat 2C450). The assay plates were prepared by addition of 50 nl per well of compound solution in 90% DMSO HummingBird nanodispenser (Zinsser Analytic). The assay was started by stepwise addition of 4.5 μl per well of bromo domain protein (50 mM HEPES, pH 7.5, 0.005% Tween20, 0.1% BSA, 50 mM NaCl, 45 nM His-Brd2(60-472) or 45 nM His-Brd3(20-477) or 45 nM His-Brd4(44-477) all proteins produced in-house) and 4.5 μl per well of peptide solution (50 mM HEPES, pH 7.5, 0.005% Tween20, 0.1% BSA, 50 mM NaCl, 60 nM acetyl-histone H4 (AcK 5, 8, 12, 16) (Biosyntan GmbH)). Reactions were incubated at 30° C. for 35 minutes. Subsequently 4.5 μl per well detection mix (50 mM HEPES, pH 7.5, 0.005% Tween20, 0.1% BSA, 50 mM NaCl, 3 nM Eu-labeled anti-His6 antibody, 21 nM streptavidin-allophycocyanin) were added. After 35 minutes incubation at 30° C., plates were measured in a Perkin Elmer EnVision multilabel reader. Concentrations causing 50% inhibition (1050) values were determined from percent inhibition values at different compound concentrations by non-linear regression analysis.
(§2) Test compounds were dissolved in DMSO (10 mM) and transferred into 1.4 mL flat bottom or V-shaped Matrix tubes carrying a unique 2D matrix. The stock solutions were stored at […] if not used immediately. For the test procedure the vials were defrosted and identified by a scanner whereby a working sheet was generated that guided the subsequent working steps. Compound dilutions were made in 96 well plates. This format enabled the assay of maximally 40 individual test compounds at 8 concentrations (single points) including 4 reference compounds, if desired (known BET inhibitors from the prior art, for this and other assays of the type disclosed herein). The dilution protocol included the production of “pre-dilution plates”, “master plates” and “assay plates”.
(§3) Pre-dilution plates: 96 polypropylene well plates were used as pre-dilution plates. A total of 4 pre-dilution plates were prepared including 10 test compounds each on the plate positions A1-A10, one standard compound at A11 and one DMSO control at A12. All dilution steps were done on a HamiltonSTAR robot. Master plates: 30 μL of individual compound dilutions including standard compound and controls of the 4 “pre-dilution plates” were transferred into a 384 “master plate” including the following concentrations 10000, 3003, 1000, 300, 100, 30, 10 and 3 μM, respectively in 90% of DMSO. Assay plates: Identical “assay plates” were then prepared by pipetting 50 nL each of compound dilutions of the “master plates” into 384-well “assay plates” by means of a HummingBird 384-channel dispenser. These plates were used directly for the assay which was performed in a total volume of 13.55 μL. This led to a final compound concentration of 37, 11, 3.7, 1.1, 0.37, 0.11, 0.037 and 0.011 μM and a final DMSO concentration of 0.37% in the assay. Cell Growth Inhibition Assay

[2] = target: BRD3 (His-Brd3(20-477)) (Homo sapiens (Human), UniProt Q15059); assay: TR-FRET in-vitro binding assay for BRD3; settings: acetyl-histone H4 peptide
Chain of BRD3 (His-Brd3(20-477)) (Q15059 20-477, species assumed): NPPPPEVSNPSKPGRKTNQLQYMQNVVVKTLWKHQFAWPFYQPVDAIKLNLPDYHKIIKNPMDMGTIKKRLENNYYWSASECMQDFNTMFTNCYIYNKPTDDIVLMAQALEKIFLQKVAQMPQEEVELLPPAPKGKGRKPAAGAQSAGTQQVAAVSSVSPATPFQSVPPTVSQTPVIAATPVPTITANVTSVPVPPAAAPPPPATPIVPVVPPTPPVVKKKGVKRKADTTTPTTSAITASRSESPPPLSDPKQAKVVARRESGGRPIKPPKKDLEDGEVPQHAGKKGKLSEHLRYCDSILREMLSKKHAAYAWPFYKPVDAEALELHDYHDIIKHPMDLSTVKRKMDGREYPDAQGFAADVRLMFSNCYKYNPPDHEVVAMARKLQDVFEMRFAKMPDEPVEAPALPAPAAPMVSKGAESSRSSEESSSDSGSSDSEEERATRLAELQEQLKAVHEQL
Experimental: as §1, §2, §3

[3] = system: MV-4-11 cells; assay: Cell growth inhibition assay (CellTiter-Glo), MV-4-11; assay type: cell-based, human; settings: MV-4-11, 4 days; for GI50: half-maximal growth inhibition; for MV-4-11 TGI: total growth inhibition
Experimental: (§4) The human leukemia cell lines MV-4-11, THP-1 and K-562 were employed to characterize the effect of BET inhibitors on cellular proliferation and viability. Cells were obtained from the American Type Culture Collection (ATCC) and cultured at 37° C. in a humidified 5% CO2 incubator in the following media: MV-4-11: DMEM high glucose (Animed #1-26F01-I), 10% FCS (Animed #2-01F26-I), 4 mM L-Glutamine (Animed #5-10K50), 1 mM Sodium Pyruvate (Animed # G03625P), 1× Penicillin-Streptomycin (Animed # F12478P); K-562: Iscove's MEM (Animed #1-28F16-I), 10% FCS (Animed #2-01F26-I), 4 mM L-Glutamine (Animed #5-10K50), 1× Penicillin-Streptomycin (Animed # F12478P); THP-1: RPMI-1640 (Animed #1-41F01-I), 10% FCS (Animed #2-01F26-I), 2 mM L-Glutamine (Animed #5-10K50), 10 mM HEPES (Animed #5-31F100), 1 mM Sodium Pyruvate (Animed # G03625P), 1× Penicillin-Streptomycin (Animed # F12478P). The AML lines MV-4-11 and THP-1 are very sensitive to BET inhibitors and show massive cell death upon BET inhibition (Zuber et al., Nature, 478 (2011), 524-8). Compound-mediated suppression of cell proliferation/viability was assessed by quantification of cellular ATP levels using the CellTiter-Glo (CTG) reagent (Promega). Briefly, cells were seeded in 20 μl fresh medium into 384-well plates, followed by addition of 5 μl medium containing compound dilutions at 5-fold their final intended concentration. Dose-response effects were assessed by 3-fold serial dilutions of the test compound, starting at 10 μM. Following incubation of the cells for 4 days at 37° C. and 5% CO2, the effect of inhibitors on cell viability was quantified following addition of 20 μl CTG and luminescence quantification (integration time: 100 ms) as per vendor manual, using a correspondingly equipped Tecan M200 multi-mode platereader (TECAN, Switzerland). For data analysis, the assay background value determined in wells containing medium, but no cells, was subtracted from all data points. To enable differentiation of cytotoxic from cytostatic compounds, the number of viable cells is assessed relative to that observed at the time of compound addition using a separate cell plate (day 0). The effect of a particular test compound concentration on cell proliferation/viability is expressed as percentage of the background- and day 0-corrected luminescence reading obtained for cells treated with vehicle only (DMSO, 0.1% final concentration), which is set as 100%, whereas that luminescence reading for wells containing medium is set as −100%. Compound concentrations leading to half-maximal (1050) and total growth inhibition (TGI) were determined using standard four parameter curve fitting.

[4] = system: K-562 cells; assay: Cell growth inhibition assay (CellTiter-Glo), K-562; assay type: cell-based, human; settings: K-562, 4 days; for GI50: half-maximal growth inhibition; for K-562 TGI: total growth inhibition
Experimental: as §4

Chain of BRD2 (His-Brd2(60-472)) (P25440 60-472, species assumed): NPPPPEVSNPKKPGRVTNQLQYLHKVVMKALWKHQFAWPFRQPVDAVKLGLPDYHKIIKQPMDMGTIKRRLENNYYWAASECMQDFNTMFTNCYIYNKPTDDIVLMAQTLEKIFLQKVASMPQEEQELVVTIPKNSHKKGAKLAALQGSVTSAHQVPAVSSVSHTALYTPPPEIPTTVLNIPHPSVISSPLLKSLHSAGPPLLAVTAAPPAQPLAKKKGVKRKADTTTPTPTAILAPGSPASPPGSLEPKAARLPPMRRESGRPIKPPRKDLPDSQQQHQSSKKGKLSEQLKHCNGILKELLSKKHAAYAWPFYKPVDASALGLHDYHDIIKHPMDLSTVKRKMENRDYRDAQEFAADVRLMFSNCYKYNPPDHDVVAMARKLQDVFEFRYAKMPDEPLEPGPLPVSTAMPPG

| SMILES | IC50 [1] [µM] | IC50 [2] [µM] | GI50 ([3]; Homo sapiens, MV4-11, 96 h) [µM] | MV-4-11 TGI [3] [µM] | GI50 ([4]; Homo sapiens, K562, 96 h) [µM] | K-562 TGI [4] [µM] | GI50 [3] [µM] | GI50 [4] [µM] |
| --- | --- | --- | --- | --- | --- | --- | --- | --- |
| COc1ncccc1-n1nc2c(c1C)C(=O)N(c1cc(C)c(=O)n(C)c1)C2c1ccc(Cl)cc1 (stereo not drawn) [Example 17b, 6-(4-chlorophenyl)-5-(1,5-dimethyl-6-oxo-1,6-dihydropyridin-3-yl)-2-(2-methoxypyridin-3-yl)-3-methyl-5,6-dihydropyrrolo[3,4-c]pyrazol-4(2H)-one] | 0.053 | 0.046 | 0.027 | 0.0343 | 0.154 | >10 |  |  |
| Cc1cc(N2C(=O)c3c(C4CC4)nn(-c4ccnn4C)c3[C@H]2c2ccc(Cl)cc2)cn(C)c1=O [Example 22, (R)-6-(4-chlorophenyl)-3-cyclopropyl-5-(1,5-dimethyl-6-oxo-1,6-dihydropyridin-3-yl)-1-(1-methyl-1H-pyrazol-5-yl)-5,6-dihydropyrrolo[3,4-c]pyrazol-4(1H)-one] | 0.16 | 0.089 | 0.0495 | 0.08865 | 0.278 | >10 |  |  |
| Cc1[nH]nc2c1C(=O)N(c1cc(Cl)c(=O)n(C)c1)[C@@H]2c1ccc(Cl)cc1 [Example 28, (R)-5-(5-chloro-1-methyl-6-oxo-1,6-dihydropyridin-3-yl)-6-(4-chlorophenyl)-3-methyl-5,6-dihydropyrrolo[3,4-c]pyrazol-4(2H)-one] | 0.17 | 0.069 | 0.0493 | 0.0864 | 0.318 | >10 |  |  |
| COc1ccc(-n2nc(C)c3c2C(c2ccc(Cl)cc2)N(c2cc(C)c(=O)n(C)c2)C3=O)cc1 (stereo not drawn) [Example 13, 6-(4-chlorophenyl)-5-(1,5-dimethyl-6-oxo-1,6-dihydropyridin-3-yl)-1-(4-methoxyphenyl)-3-methyl-5,6-dihydropyrrolo[3,4-c]pyrazol-4(1H)-one] | 0.097 | 0.0755 | 0.03 | 0.0562 | 0.484 | >10 |  |  |
| Cc1[nH]nc2c1C(=O)N(c1cc(Cl)c(=O)n(C)c1)C2c1ccc(Cl)cc1 (stereo not drawn) [Example 6, 5-(5-chloro-1-methyl-6-oxo-1,6-dihydropyridin-3-yl)-6-(4-chlorophenyl)-3-methyl-5,6-dihydropyrrolo[3,4-c]pyrazol-4(2H)-one] | 0.094 | 0.08 | 0.0741 | 0.134 | 0.558 | >10 |  |  |
| COc1ncccc1-n1nc(C)c2c1[C@@H](c1ccc(Cl)cc1)N(c1cc(C)c(=O)n(C)c1)C2=O [Example 25, (R)-6-(4-chlorophenyl)-5-(1,5-dimethyl-6-oxo-1,6-dihydropyridin-3-yl)-1-(2-methoxypyridin-3-yl)-3-methyl-5,6-dihydropyrrolo[3,4-c]pyrazol-4(1H)-one] | 0.13 | 0.064 | 0.0407 | 0.07255 | 0.206 | >10 |  |  |
| CNC1=C(C(=N)C2CC2)C(=O)N(c2cc(C)c(=O)n(C)c2)[C@@H]1c1ccc(Cl)cc1 [Example 2] | 0.022 | 0.02 |  | 0.0303 |  | >10 | 0.0154 | 0.121 |
| CCOc1ncccc1-n1nc2c(c1C)C(=O)N(c1cc(C)c(=O)n(C)c1)C2c1ccc(Cl)cc1 (stereo not drawn) [Example 18b, 6-(4-chlorophenyl)-5-(1,5-dimethyl-6-oxo-1,6-dihydropyridin-3-yl)-2-(2-ethoxypyridin-3-yl)-3-methyl-5,6-dihydropyrrolo[3,4-c]pyrazol-4(2H)-one] | 0.035 | 0.039 | 0.0169 | 0.0313 | 0.149 | >10 |  |  |
| COc1ncc(-n2nc3c(c2C)C(=O)N(c2cc(C)c(=O)n(C)c2)C3c2ccc(Cl)cc2)c(OC)n1 (stereo not drawn) [Example 14, 6-(4-chlorophenyl)-2-(2,4-dimethoxypyrimidin-5-yl)-5-(1,5-dimethyl-6-oxo-1,6-dihydropyridin-3-yl)-3-methyl-5,6-dihydropyrrolo[3,4-c]pyrazol-4(2H)-one] | 0.094 | 0.074 | 0.122 | 0.203 | 0.615 | >10 |  |  |
| COc1ncc(-n2nc3c(c2C)C(=O)N(c2cc(Cl)c(=O)n(C)c2)C3c2ccc(Cl)cc2)cn1 (stereo not drawn) [Example 8b, 5-(5-chloro-1-methyl-6-oxo-1,6-dihydropyridin-3-yl)-6-(4-chlorophenyl)-2-(2-methoxypyrimidin-5-yl)-3-methyl-5,6-dihydropyrrolo[3,4-c]pyrazol-4(2H)-one] | 0.16 | 0.14 | 0.117 | 0.195 | 0.999 | >10 |  |  |
| Cc1cc(N2C(=O)c3c(C4CC4)nn(C)c3C2c2ccc(Cl)cc2)cn(C)c1=O (stereo not drawn) [Example 1, 6-(4-chlorophenyl)-3-cyclopropyl-5-(1,5-dimethyl-6-oxo-1,6-dihydropyridin-3-yl)-1-methyl-5,6-dihydropyrrolo[3,4-c]pyrazol-4(1H)-one] | 0.032 | 0.03 | 0.0246 | 0.0412 | 0.141 | >10 |  |  |
